The text below walks through data of US3935199A, “Iminomethylindolines” (Mead Johnson & Company, priority 1974, dated 1976).

SMILES strings stand for the structures. Structures can show the parent of a compound that is named as a salt. Where two headings read alike, the source gives them in different places.

Assay [1] has as its system pentobarbital treated cats. Kind of assay: pentobarbital antagonism test in the cat. The note with it: comparison of 4-ethyl-4-methyl-2,6-piperidinedione and the two preferred compounds. The format is in vivo. On the procedure: (§1) The compounds of the present invention effectively stimulate the central nervous system of mammals. Compounds having biological activity of this type are generally referred to as being analeptic agents.
The pentobarbital antagonism test for the compounds of the present invention in the cat is carried out in the following fashion. A cat of either sex wherein a chronically indwelling intravenous cannula has been previously surgically inserted, is placed in an observation cubicle measuring 2 ft. × 2ft. × 2ft. The cat is allowed to move about freely at the end of a leash. A dose of 12 milligrams per kilogram of body weight of pentobarbital sodium in aqueous solution is infused at the rate of approximately 2 milligrams per kilogram per minute via tubing contained in the leash. One-half hour after the start of this infusion the cat is in a state of light anesthesia characterized by unconsciousness, immobility, relaxed nictating membrane, and is not responsive to handling but has active pinneal, palpebral and paw-pinch withdrawal reflexes. At this time the 1-iminomethylindoline compound is infused in concentration of 10 milligrams per milliter at a rate of 0.2 milliters per minute until (a) consciousness is restored, (b) a total of 25 milligrams per kilogram of body weight of test compound is administered or (c) mounting toxicity interferes. Consciousness is recognized by the presence of alertness to surroundings as indicated by the ability of the cat's eyes to follow a movement of a nearby object and in its attempts to assume an upright position.
Representative compounds of the present invention wherein a dose of up to 25 milligrams per kilogram of body weight restored consciousness to pentobarbital treated cats are Examples 1-4, 7-10, 12, 15, 17-20, (Table III).

Assay [2] deals with chloral hydrate treated mice. Kind of assay: chloral hydrate antagonism test in the mouse (sleeping time). The format is in vivo, mouse (male albino mice). The note with it: po, read-out: dose producing a 50 percent reduction of the sleeping time.
Assay [3] has as its system phenylquinone writhing syndrome in mice. Put plainly: prevention of phenylquinone writhing (analgesic activity). The format is in vivo. As to conditions: Mus musculus, sc, 10 min, read-out: ED50 (prevention of phenylquinone writhing). The procedure:
The prevention of this syndrome is employed as a measure of analgesic activity -- Hendershot and Forsaith, J. Pharmacol. Exp. Therap. […] In this test, groups of 10 to 20 mice are injected subcutaneously with graduated doses of the test compound. At the time of a predetermined peak effect, the animals are administered a dose of 2.5 milligrams per kilogram of body weight of phenylquinone intraperitoneally. The latter injection induces writhing episodes in the mice. […] A log dose-response curve is prepared and the dose of the test compound required to decrease the number of writhing episodes of 50 percent is estimated by interpolation.
On the technique in general: In writhing tests, fewer writhes than in controls are read as antinociception.

Assay [4] concerns chloral hydrate treated mice. Put plainly: chloral hydrate antagonism test in the mouse (sleeping time). The format is in vivo, mouse (male albino mice). The note with it: oral 20 mg/kg, followed by 300 mg/kg i.p. chloral hydrate, compared to saline-treated control group, read-out: Percent Reduction in Sleeping Time at 20 mg/kg Body Weight. On the procedure:
as §1
According to the chloral hydrate antagonism test, groups of 20 fasted male albino mice are administered an oral dose of 20 milligrams per kilogram of the 1-iminomethylindoline test compound. This is followed immediately by an intraperitoneal dose of 300 milligrams per kilogram of chloral hydrate. The average reduction in sleeping time compared to a saline-treated control group is a measure of the central nervous system stimulant action of the test compound and is as follows for representative 1-iminomethylindolines of this invention.

The subject of a further assay is motor activity in rats. Put plainly: activity cage technique (motor stimulation in rats). The format is in vivo, rat. An excerpt:
The activity cage technique described by J. W. Kissel, Science, 139, 1224 (1963), was used to measure motor stimulation in rats. […] Since motor stimulation is generally associated with analeptic action, the instant compounds of this invention are unique in the respect that while they are analeptic agents they are not motor stimulants.

Where [5] appears, read: subcutaneous, phenylquinone 2.5 mg/kg i.p., episodes counted during 10 minutes.
The mark [6] stands for this setting: mouse, 300 mg/kg chloral hydrate, comparative test.

For the compound `CCC1(C)CC(=O)NC(=O)C1` [4-ethyl-4-methyl-2,6-piperidinedione, reference compound], the “comparison of pentobarbital antagonism: restoring consciousness to a pentobarbital treated cat” value (from here on “comparison of pentobarbital antagonism”) in assay [1] is “substantially equiactive”. The ED50 in assay [2] (Mus musculus) stood at 14.4 mg/kg.

`CC(=O)Oc1ccccc1C(=O)O` [Aspirin, reference compound]: the ED50 in assay [3] stood at 20 mg/kg.

In the case of `CN=CN1CCc2ccccc21.Cl` [Example 1, 1-[(Methylimino)methyl]indoline hydrochloride], the ED50 in assay [3] (setting [5]) came to 21.8 mg/kg.

Turning to `CC(C)N=CN1CCc2ccccc21` [Example 2, 1-[(Isopropylimino)methyl]indoline hydrochloride hemihydrate], the inhibition in vivo at 20 mg/kg in assay [4] was 38%.

Consider `CN=C(C)N1CCc2ccccc21.Cl` [Example 3, 1-[1-(Methylimino)ethyl]indoline hydrochloride], for which the inhibition in vivo at 20 mg/kg in assay [4] was 24%. Also, the ED50 in assay [3] (setting [5]) was determined as 15.8 mg/kg.

Turning to `CN=C(NC)N1CCc2ccccc21` [Example 4, 1-(N,N'-Dimethylamidino)indoline], the inhibition in vivo at 20 mg/kg in assay [4] stood at 24%.

On to `c1ccc2c(c1)CCN2C1=NCCC1` [Example 7, 1-[2-(1-Pyrrolinyl)]indoline hydrochloride], for which the inhibition in vivo at 20 mg/kg in assay [4] stood at 10%. Besides, the ED50 in assay [3] (setting [5]) was determined as 3.85 mg/kg.

As to `CC1CCC(N2CCc3ccccc32)=N1` (centres unmarked) [Example 8, 1-[2-(5-Methyl-1-pyrrolinyl)]indoline hydrochloride], in assay [4], the inhibition in vivo at 20 mg/kg was 36%. Besides, in assay [3] (setting [5]), the ED50 was determined as 13 mg/kg.

As for `CC1(C)CCC(N2CCc3ccccc32)=N1` [Example 9, 1-[2-(5,5-Dimethyl-1-pyrrolinyl)]-indoline hydrochloride], in assay [1], the “comparison of pentobarbital antagonism” value is listed as “substantially equiactive”. For the same compound, the inhibition in vivo at 20 mg/kg in assay [4] stood at 65%. Besides, the motor activity entry in the assay with motor activity in rats is “did not produce an increase in motor activity”. In addition, the ED50 in assay [2] (setting [6]) worked out at 15 mg/kg.

Turning to `Cl.c1ccc2c(c1)CCN2C1=NCCCC1` [Example 10, 1-(3,4,5,6-Tetrahydro-2-pyridyl)-indoline hydrochloride], the ED50 in assay [3] (setting [5]) turned out to be 5.7 mg/kg.

Take `c1ccc2c(c1)CCN2C1=NCCCCC1` [Example 11, 1-[7-(3,4,5,6-Tetrahydro-2H-azepinyl)]-indoline hydrochloride]: in assay [3] (setting [5]), the ED50 was found to be 17.1 mg/kg.

As to `c1ccc2c(c1)CCN2C1=NCCSC1` [Example 12, 1-[5,6-Dihydro-3-(2H-thiazinyl)]indoline hydrochloride], in assay [3] (setting [5]), the ED50 is 11.3 mg/kg.

With `Cl.c1ccc2c(c1)CCN2C1=NCCN1` [Example 13, 1-(2-Imidazolin-2-yl)indoline hydrochloride], in assay [3] (setting [5]), the ED50 was 33.2 mg/kg.

Take `CC(=O)c1ccc2c(c1)CCN2C1=NCCC1` [Example 17, 5-Acetyl-1-[2-(1-pyrrolinyl)]indoline]: the “comparison of pentobarbital antagonism” value in assay [1] is “substantially equiactive”. The inhibition in vivo at 20 mg/kg in assay [4] came to 62%. For the same compound, in the assay with motor activity in rats, the motor activity entry is reported as “did not produce an increase in motor activity”. Further, the ED50 in assay [3] (setting [5]) is 7.7 mg/kg; in assay [2] (setting [6]), 10 mg/kg.

With `CC(=O)c1ccc2c(c1)CCN2C1=NCCCCC1` [Example 18, 5-Acetyl-1-[7-(3,4,5,6-tetrahydro-2H-azepinyl)]indoline hydrochloride], the inhibition in vivo at 20 mg/kg in assay [4] was 17%. Moreover, the ED50 in assay [3] (setting [5]) was 16.2 mg/kg.

In the case of `CN=CN1CCc2cc([N+](=O)[O-])ccc21.Cl` [Example 19, 1-[(Methylimino)methyl]-5-nitro-indoline hydrochloride], in assay [3] (setting [5]), the ED50 amounted to 10.3 mg/kg.

With `O=[N+]([O-])c1ccc2c(c1)CCN2C1=NCCCCC1` [Example 21, 1-[7-(3,4,5,6-Tetrahydro-2H-azepinyl)]-5-nitroindoline hydrochloride], in assay [4], the inhibition in vivo at 20 mg/kg is 50%.
